{"source": "patent US20020188202A1", "about": "“Method of diagnosis and treatment and related compositions and apparatus” (priority 1996, published 2002)", "key": {"[1]": {"test_system": "migraine patients with vasospasm on TCD", "experiment": "Migraine patients treated with Nitroglycerine patches, TCD and neurological exam", "assay_type": "in vivo, human patients", "method": "All patients are evaluated with a complete history, physical exam, and neurological exam by a Board Certified Neurologist. All patients have blood work consisting of a CBC with differential count and platelets as well as an SMA-30 obtained. All whiplash related patients underwent a CT or MRI of the brain, EEG and qEEG, B-mode and spectral analysis ultrasound of the subclavian, carotid, and vertebral circulation, and Transcranial Doppler (TCD) examination of the intracranial circulation. In some situations, repetitive Transcranial Doppler examinations are performed on the same patient in the same day. Initially, these tests are performed by maintaining the probe on the patient's head through the course of several hours, but later the technique involves using the same probe, patient position, technician, depth, and cranial window with serial but interrupted exams across the course of the day. In all cases, the highest spectral frequencies are recorded, as well as repeat exams at the same depth and window as the baseline pre-medication windows were obtained. Immediately prior to initial TCD exams, a neurological exam is carried out. At the time of initiation of treatment for the cerebral vasospasm, at which time vasoactive medications are administered after the baseline TCD and neuro exam are obtained, repeat TCD exams are carried out and when medication effects on the intracranial circulation were identified, repeat neurological exams are obtained. In 5 patients, P300 are obtained prior to initiation of treatment and, again, several months later. The same methodology is used in those patients referred for evaluation of possible MS-like syndrome as recognized in the recent global settlement. With these patients, triple evoked potentials, EEG and qEEG, and a vascular evaluation as outlined above is carried out in all patients, and in 11 who decided to attempt treatment with vasoactive drugs, the methodology outlined above for initiation of as in the MVA-related post-concussion syndrome are used. 10 of the 19 MS-like syndrome patients additionally had brain MRI tests performed. […]"}, "[2]": {"test_system": "adult ADD patients with vasospasm", "experiment": "Attention Deficit Disorder siblings treated with vasodilators, serial TCD and neuropsychological testing", "assay_type": "in vivo, human patients", "conditions": "male; for right MCA mean flow velocity: baseline 0.86; for left MCA mean flow velocity: baseline 0.92", "method": "Both were administered a battery of tests which measured neuropsychological functioning and personality variables.\nOn referral for neurological evaluation, mild physical and significant objective testing abnormalities were found. […] Both, further, had difficulty performing a Tandem Gait with complete ease. The physical exam was otherwise normal. An EEG and computerized EEG were performed and were abnormal.\nBoth individuals were treated with vasodilating medications for 10 months and received psychotherapy and vocational counseling. Relaxation and hypnotherapy were also used to develop visualization skills for both recall of successful social and work experiences and to visualize successful outcomes of activities to do.\nIn serial testing, the […] underwent TCD's on three separate occasions on the same day. […] By the end of the day, […] identified that […] could read, understand and retain news articles and magazine articles. […] could also follow a television show throughout. […] could do neither at the beginning of the day.\nOn the basis of the objective disorders of flow and the patient's reported and observed improvement during the trial episode of administering medications to decrease the observed vasospasm, we started the sibling on vasodilators. […] This regimen was made up of a low dose Calcium Channel Blocker, and an ACE inhibitor along with low dose Nitroglycerine and a Clonidine patch."}, "[3]": {"test_system": "patient with migraine, schizophrenic reaction and vasospasm", "experiment": "Case study: psychosis caused by cerebral ischemia, EEG and TCD", "assay_type": "in vivo, human patient", "conditions": "single patient"}, "[4]": {"test_system": "patients with cerebral vasospasm", "experiment": "Vasoactive medications tried on Applicant's patients with vasospasm, monitored by Transcranial Doppler (TCD), exam and symptoms", "source_text": "As headache was a major complaint of many of Applicant's patients, we tried these medications out including Imitrex (Sumatriptan), IM Toradol (Ketoralac) and other medications under direct monitoring. […] Rather, it was expected that one or another set of medications might help point the way into using specific classes of medications or approaches. Accordingly, each of these patients. equivalent of a large number of patients, were monitored continuously across the day.\nWith respect to the different monitoring tools, some were more helpful than others. […] The Brain Stem Auditory Evoked Response and other evoked potential tests were very insensitive tools for monitoring, because of the length of time required to perform the test after short-acting medications were given in IM or sublingual or nasal spray administration route. […] These symptoms included not only headache, but also sensations of confusion, balance disorder, abnormal Romberg or Tandem Gait of other neurological abnormalities.\nAs headache was a major complaint of many of these patients, Applicant tried these medications out including Imitrex (Sumatriptan), IM Toradol (Ketoralac) and other medications under direct monitoring. […] Rather, it was expected that one or another set of medications might help point the way into using specific classes of medications or approaches. Accordingly, each of these patients, equivalent of a large number of patients, is monitored continuously across the day.\nWith respect to the different monitoring tools, some were more helpful than others. […] The Brain Stem Auditory Evoked Response and other evoked potential tests were very insensitive tools for monitoring, because of the length of time required to perform the test after short-acting medications were given in IM or sublingual or nasal spray administration route."}, "[5]": {"conditions": "second TCD of the day after repetitive applications"}, "[6]": {"conditions": "third TCD of the day after repetitive applications"}, "[7]": {"conditions": "human, in vivo, listed as Nitroglycerine"}}, "note": "Entries after “also recorded” stand apart in the source; their conditions may differ.", "data": [{"smiles": "O=[N+]([O-])OCC(CO[N+](=O)[O-])O[N+](=O)[O-]", "note": "[Nitroglycerin]", "values": [{"measurement": "follow-up TCD at the end of application of the patch", "setting": "[1]; 3 patients", "result": "confirmed reduction of the vasospasm"}, {"measurement": "lower extremity hyper-reflexia, Rhomberg and tandem gait abnormalities", "setting": "[1]; human, in vivo", "result": "all resolved"}, {"measurement": "headache", "setting": "[1]; patches applied for 10 minutes to 1 hour, 5 patients", "result": "headache resolved"}, {"measurement": "concentration (self-assessment)", "setting": "[2]; same day serial testing", "result": "significant improvement in concentration"}, {"measurement": "neurological exam (balance testing)", "setting": "[2]; same day serial testing", "result": "exam progressively normalized"}, {"measurement": "right MCA mean flow velocity", "setting": "[2]; [5]", "result": 0.79, "unit": "meters/second"}, {"measurement": "left MCA mean flow velocity", "setting": "[2]; [5]", "result": 0.84, "unit": "meters/second"}, {"measurement": "right MCA mean flow velocity", "setting": "[2]; [6]", "result": 0.72, "unit": "meters/second"}, {"measurement": "left MCA mean flow velocity", "setting": "[2]; [6]", "result": 0.79, "unit": "meters/second"}, {"measurement": "headaches / migraines", "setting": "[3]", "result": "complete resolution of their daily headaches; also recorded: headaches completely resolved as did memory disturbances, concentration problems and emotional lability; also recorded: responded promptly"}, {"measurement": "effect on vessels seen on TCD / ultrasound (vasoconstriction or dilatation)", "setting": "[4]; human, in vivo", "result": "resulted in vascular dilatation"}, {"measurement": "headache", "setting": "[4]; human, in vivo", "result": "improvement in the patient's headache"}, {"measurement": "neurological exam and other neurological abnormalities", "setting": "[4]; human, in vivo", "result": "improvement of any other neurological abnormalities"}, {"measurement": "headache", "setting": "[4]; [7]", "result": "alleviated or treated the headache"}, {"measurement": "neurological exam and other neurological abnormalities", "setting": "[4]; [7]", "result": "clinical and neurological exam improvement"}, {"measurement": "transient supersensitivity (transient worsening of the vasospasm) on early administration", "setting": "[4]; witnessed on TCD or clinically", "result": "can give transient severe vasoconstrictive episodes"}]}]}
